Results taken from patent US10758639B2, “Methods for the treatment of peri-implantitis” (POLYPID LTD., priority 2014, dated 2020).
“And” between values parts separate entries of the source, which are not always exact repeats. Equal values may be shown once.

Test system: Staphylococcus aureus biofilm (ATCC 29213)
Assay: MBEC P&G assay: eradication of an established (preformed) biofilm
Type: cell-based
Settings: for Log Reduction (Log R): vs. GC (growth control)
Description: The effectiveness of tri-calcium phosphate granules coated with a matrix composition according to embodiments of the invention in eradicating established biofilm was measured using the MBEC™ (Minimum Biofilm Eradication Concentration) Physiology and Genetics Assay.
MBEC™ Test Method Overview: MBEC™ test method specifies the operational parameters required to grow and treat different bacterial biofilms in a high throughput screening assay. The assay device consists of a plastic lid with ninety-six (96) pegs and a corresponding receiver plate with ninety-six (96) individual wells that have a maximum 200 μL working volume. Biofilm is established on the pegs in a batch culture based model (i.e., no flow of nutrients into or out of an individual well) with gentle mixing. The established biofilm is transferred to a new receiver plate for disinfectant efficacy testing.
Test Organisms: Staphylococcus aureus (an osteomyelitis-related strains); source: ATCC 29213; Dilution/Challenge Media: 1,000×TSB+10% human serum 24 hrs; Growth Media/agar: Tryptic Soy Broth/Tryptic Soy agar for 24 hrs Aerobic cond.
TEST METHOD overview: The experimental process for high-throughput antimicrobial susceptibility testing using the hydroxyapatite coated MBEC™ P&G assay. This standard protocol was broken into a series of small steps, each of which is detailed in the sections below.
1. Culture/Inoculum Preparation:
Using a cryogenic stock (at −70° C.), a first sub-culture of Staphylococcus aureus was streaked out on OSA (organism specific agar). The plates were incubated at appropriate growth conditions for 20±2.0 hours and further stored at 4° C.
A second sub-culture taken from the first sub-culture was streaked out on OSA. The plates were incubated at appropriate growth conditions for 20±2.0 hours. An isolated colony from the second sub-culture was aseptically removed from the OSA plate and inoculated into 50 mL of sterile bacterial liquid growth broth, followed by incubation appropriate growth conditions for 20±2.0 hours (at 150 rpm).
The inoculum was adjusted to an approximate cell density of 10^6 CFU/mL by diluting in OSB according to table 1.
Samples (100 μL) of the diluted organism were used for an inoculum check by serially diluting and spot plating on OSA in triplicate.
Preparation of the Challenge Plate:
150 μL of the remaining diluted organism were placed in each of the corresponding wells of an MBEC™ P&G device except the sterility controls (Table 5). The device was placed on an orbital shaker (110 RPM) in a humidified incubator at 37±1° C.
Antimicrobial Challenge for Preformed Biofilm:
The biofilm formed on the lid of the MBEC device was rinsed by dipping the lid into saline (˜30 seconds) to remove planktonic cells. The lid was then put on top of the challenge plate and incubated on a rotary shaker at 110 rpm at 35±2° C. for 24±2 hours.
After incubation (specified above), planktonic cells were rinsed off the biofilm by dipping the lid into saline (˜20-30 seconds). The lid was then transferred to a neutralizer/recovery plate and put in a sonicator (˜30 minutes) to dislodge surviving biofilm.
Following sonication, 100 μL from each well of the MBEC™ plate, were put into the first 12 empty wells of the first row of a 96 well-micro titer plate and were further diluted by 10 fold down each of the 8 rows (10^0-10^7 dilution). 5 μL from each well were then used for spotting prepared OSA plates. The agar plates were incubated at 37±1° C. and counted after approximately 24-48 hours of incubation. The arithmetic mean of the number of colonies counted on the plates was calculated.
100 μL of the sterile neutralizer was added to each well of the recovery plate to top up the volume back to 200 μL. The refilled plate is incubated at 35±2° C. for 24±2 hours, after which the plates were analyzed using a plate reader.
The log density for one peg was calculated as follows:
LOG10 (CFU/peg)=LOG10 [(XB) (D)] where: X=mean CFU; B=volume plated (0.02 mL) and D=dilution. […]

## Gentamicin [D]
0.5 μg
  Average Log10 CFU/peg recoveries: 3.48 Log10 CFU/peg
  Log10 CFU/peg recoveries, replicates 1-3: 3.90 Log10 CFU/peg and 2.90 Log10 CFU/peg and 3.64 Log10 CFU/peg
  Log Reduction (Log R): 1.11 LOG10
1.0 μg
  Average Log10 CFU/peg recoveries: 3.21 Log10 CFU/peg
  Log10 CFU/peg recoveries, replicates 1-3: 4.72 Log10 CFU/peg and 2.60 Log10 CFU/peg and 2.30 Log10 CFU/peg
  Log Reduction (Log R): 1.38 LOG10
2.0 μg
  Average Log10 CFU/peg recoveries: 1.69 Log10 CFU/peg
  Log10 CFU/peg recoveries, replicates 1-3: 2.30 Log10 CFU/peg and 0.00 Log10 CFU/peg and 2.78 Log10 CFU/peg
  Log Reduction (Log R): 2.90 LOG10
4.0 μg
  Average Log10 CFU/peg recoveries: 1.31 Log10 CFU/peg
  Log10 CFU/peg recoveries, replicates 1-3: 1.61 Log10 CFU/peg and 2.30 Log10 CFU/peg and 0.00 Log10 CFU/peg
  Log Reduction (Log R): 3.29 LOG10
8.0 μg
  Average Log10 CFU/peg recoveries: 0.00 Log10 CFU/peg
  Log10 CFU/peg recoveries, replicates 1-3: 0.00 Log10 CFU/peg
  Log Reduction (Log R): 4.59 LOG10
16 μg
  Average Log10 CFU/peg recoveries: 0.00 Log10 CFU/peg
  Log10 CFU/peg recoveries, replicates 1-3: 0.00 Log10 CFU/peg
  Log Reduction (Log R): 4.59 LOG10
32 μg
  Average Log10 CFU/peg recoveries: 0.00 Log10 CFU/peg
  Log10 CFU/peg recoveries, replicates 1-3: 0.00 Log10 CFU/peg
  Log Reduction (Log R): 4.59 LOG10
